Measured values reported in patent publication US8952024B2, “Herbicidal pyrimidone derivatives” (E I du Pont de Nemours and Company, priority 2009, dated 2015).

What was measured:
Type in all cases: in vivo
[1] = test system: umbrella sedge (Cyperus difformis); test: Test B flooded paddy test; conditions: for Plant response rating, Flood, Sedge, Umbrella: 250 g ai/ha, flooded paddy test, visual rating on 0 to 100 scale (0 no effect, 100 complete control) after 13 to 15 days; for Plant response rating, Sedge, Umbrella: Flood (flooded paddy test), 13 to 15 days
Summary of the method: (§1)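 Seedlings reaching 2 leaves are flooded 3 cm deep; test material is delivered to that water, which stays at the same depth. Plants remain in a greenhouse 13–15 days and are then scored by eye versus controls from 0 to 100.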

[2] = test system: ducksalad (Heteranthera limosa); test: Test B flooded paddy test; conditions: for Plant response rating, Flood, Ducksalad: 250 g ai/ha, flooded paddy test, visual rating on 0 to 100 scale (0 no effect, 100 complete control) after 13 to 15 days; for Plant response rating, Ducksalad: Flood (flooded paddy test), 13 to 15 days
Summary of the method: as §1

[3] = test system: barnyardgrass (Echinochloa crus-galli); test: Test B flooded paddy test; conditions: for Plant response rating, Flood, Barnyardgrass: 250 g ai/ha, flooded paddy test, visual rating on 0 to 100 scale (0 no effect, 100 complete control) after 13 to 15 days; for Plant response rating, Barnyardgrass: Flood (flooded paddy test), 13 to 15 days
Summary of the method: as §1

rice (Oryza sativa) = test: Test B flooded paddy test; conditions: for Plant response rating, Flood, Rice: 250 g ai/ha, flooded paddy test, visual rating on 0 to 100 scale (0 no effect, 100 complete control) after 13 to 15 days; for Plant response rating, Rice: Flood (flooded paddy test), 13 to 15 days
Summary of the method: as §1

corn (Zea mays) = test: Test A pre-/postemergence plant response
Summary of the method: (§2)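 Both pre- and postemergence treatments are applied simultaneously, using chemicals formulated in a non-phytotoxic solvent mixture with surfactant. Postemergence plants are 2–10 cm high with one to two leaves. After approximately ten days in a greenhouse, injury is scored visually from 0 (none) to 100 (complete control) relative to untreated plants.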

[4] = test system: pigweed (Amaranthus retroflexus); test: Test A pre-/postemergence plant response
Summary of the method: as §2

[5] = test system: large crabgrass (Digitaria sanguinalis); test: Test A pre-/postemergence plant response
Summary of the method: as §2

[6] = test system: morningglory (Ipomoea spp.); test: Test A pre-/postemergence plant response
Summary of the method: as §2

[7] = test system: velvetleaf (Abutilon theophrasti); test: Test A pre-/postemergence plant response
Summary of the method: as §2

[8] = test system: giant foxtail (Setaria faberii); test: Test A pre-/postemergence plant response
Summary of the method: as §2

[9] = test system: wheat (Triticum aestivum); test: Test A pre-/postemergence plant response
Summary of the method: as §2

[10] = test system: barnyardgrass (Echinochloa crus-galli); test: Test A pre-/postemergence plant response
Summary of the method: as §2

[11] = 62 g ai/ha, scale of 0 to 100 where 0 is no effect and 100 is complete control
[12] = 125 g ai/ha, scale 0 to 100, 0 is no effect, 100 is complete control
[13] = Flood, 31 g ai/ha, scale 0 to 100 (0 no effect, 100 complete control)
[14] = Postemergence, 125 g ai/ha, 0 to 100 scale where 0 is no effect and 100 is complete control
[15] = Postemergence, 500 g ai/ha, 0 to 100 scale, 0 = no effect, 100 = complete control, approx. ten days
[16] = Preemergence, 125 g ai/ha, 0 to 100 scale, 0 = no effect, 100 = complete control
[17] = Preemergence, 500 g ai/ha, visual injury, 0 to 100 scale (0 no effect, 100 complete control), approx. ten days
[18] = Preemergence, 500 g ai/ha, 0 to 100 scale, 0 = no effect, 100 = complete control
[19] = Postemergence, 125 g ai/ha, visual injury, 0 to 100 scale (0 no effect, 100 complete control), approx. ten days

CCCn1c(-c2cc(C)cc(C)c2)ncc(C(=O)C2=C(O)CCCC2=O)c1=O [Compound 156]
Plant response rating, Flood, Sedge, Umbrella [1]: 100 | Plant response rating, Sedge, Umbrella [1, 11]: 95 | Plant response rating, Sedge, Umbrella [1, 12]: 100 | Sedge, Umbrella plant response rating [1, 13]: 0 | Plant response rating, Flood, Ducksalad [2]: 100 | Plant response rating, Ducksalad [2, 11]: 65 | Plant response rating, Ducksalad [2, 12]: 80 | Ducksalad plant response rating [2, 13]: 0 | Plant response rating, Flood, Barnyardgrass [3]: 60 | Plant response rating, Barnyardgrass [3, 11]: 20 | Plant response rating, Barnyardgrass [3, 12]: 40 | Barnyardgrass plant response rating [3, 13]: 0 | Plant response rating, Flood, Rice (rice (Oryza sativa)): 35 | Plant response rating, Rice (rice (Oryza sativa); [11]): 30 | Plant response rating, Rice (rice (Oryza sativa); [12]): 20 | Rice plant response rating (rice (Oryza sativa); [13]): 30 | Plant response rating, Corn (corn (Zea mays); [14]): 20 | Plant response rating, Corn (corn (Zea mays); [15]): 20 | Plant response rating, Corn (corn (Zea mays); [16]): 0 | Plant response rating, Corn (corn (Zea mays); [17]): 20 | Plant response rating, Pigweed [4, 14]: 100 | Plant response rating, Pigweed [4, 15]: 100 | Plant response rating, Pigweed [4, 16]: 70 | Plant response rating, Pigweed [4, 17]: 80 | Plant response rating, Crabgrass, Large [5, 14]: 70 | Plant response rating, Crabgrass, Large [5, 15]: 80 | Plant response rating, Crabgrass, Large [5, 16]: 10 | Plant response rating, Crabgrass, Large [5, 17]: 50 | Plant response rating, Morningglory [6, 14]: 100 | Plant response rating, Morningglory [6, 15]: 100 | Plant response rating, Morningglory [6, 16]: 0 | Plant response rating, Morningglory [6, 17]: 0 | Plant response rating, Velvetleaf [7, 14]: 100 | Plant response rating, Velvetleaf [7, 15]: 100 | Plant response rating, Velvetleaf [7, 16]: 0 | Plant response rating, Velvetleaf [7, 18]: 50 | Plant response rating, Foxtail, Giant [8, 14]: 80 | Plant response rating, Foxtail, Giant [8, 15]: 90 | Plant response rating, Foxtail, Giant [8, 16]: 10 | Plant response rating, Foxtail, Giant [8, 17]: 50 | Plant response rating, Wheat [9, 14]: 0 | Plant response rating, Wheat [9, 15]: 20 | Plant response rating, Wheat [9, 16]: 0 | Plant response rating, Wheat [9, 18]: 0 | Plant response rating, Barnyardgrass [10, 14]: 90 | Plant response rating, Barnyardgrass [10, 15]: 90 | Plant response rating, Barnyardgrass [10, 16]: 0 | Plant response rating, Barnyardgrass [10, 17]: 80

COCCn1c(-c2cc(F)cc(F)c2)ncc(C(=O)C2=C(O)CCCC2=O)c1=O [Compound 119]
Plant response rating, Flood, Sedge, Umbrella [1]: 75 | Plant response rating, Sedge, Umbrella [1, 11]: 25 | Plant response rating, Flood, Ducksalad [2]: 70 | Plant response rating, Ducksalad [2, 11]: 30 | Plant response rating, Flood, Barnyardgrass [3]: 50 | Plant response rating, Barnyardgrass [3, 11]: 30 | Plant response rating, Flood, Rice (rice (Oryza sativa)): 35 | Plant response rating, Rice (rice (Oryza sativa); [11]): 20 | Plant response rating, Corn (corn (Zea mays); [14]): 0 | Plant response rating, Corn (corn (Zea mays); [15]): 70 | Plant response rating, Corn (corn (Zea mays); [16]): 20 | Plant response rating, Corn (corn (Zea mays); [17]): 30 | Plant response rating, Pigweed [4, 14]: 100 | Plant response rating, Pigweed [4, 15]: 100 | Plant response rating, Pigweed [4, 16]: 100 | Plant response rating, Pigweed [4, 17]: 100 | Plant response rating, Crabgrass, Large [5, 14]: 80 | Plant response rating, Crabgrass, Large [5, 15]: 90 | Plant response rating, Crabgrass, Large [5, 16]: 100 | Plant response rating, Crabgrass, Large [5, 17]: 100 | Plant response rating, Morningglory [6, 14]: 90 | Plant response rating, Morningglory [6, 15]: 100 | Plant response rating, Morningglory [6, 16]: 60 | Plant response rating, Morningglory [6, 17]: 90 | Plant response rating, Velvetleaf [7, 14]: 100 | Plant response rating, Velvetleaf [7, 15]: 100 | Plant response rating, Velvetleaf [7, 16]: 90 | Plant response rating, Velvetleaf [7, 17]: 100 | Plant response rating, Foxtail, Giant [8, 14]: 70 | Plant response rating, Foxtail, Giant [8, 15]: 90 | Plant response rating, Foxtail, Giant [8, 16]: 90 | Plant response rating, Foxtail, Giant [8, 17]: 100 | Plant response rating, Wheat [9, 14]: 50 | Plant response rating, Wheat [9, 15]: 60 | Plant response rating, Wheat [9, 16]: 20 | Plant response rating, Wheat [9, 17]: 60 | Plant response rating, Barnyardgrass [10, 14]: 80 | Plant response rating, Barnyardgrass [10, 15]: 90 | Plant response rating, Barnyardgrass [10, 16]: 70 | Plant response rating, Barnyardgrass [10, 17]: 100

Cc1cccc(Cl)c1-n1c(-c2ccccc2)ncc(C(=O)C2=C(O)CCCC2=O)c1=O [Compound 46]
Plant response rating, Flood, Sedge, Umbrella [1]: 65 | Plant response rating, Sedge, Umbrella [1, 11]: 45 | Plant response rating, Flood, Ducksalad [2]: 20 | Plant response rating, Ducksalad [2, 11]: 20 | Plant response rating, Flood, Barnyardgrass [3]: 0 | Plant response rating, Barnyardgrass [3, 11]: 0 | Plant response rating, Flood, Rice (rice (Oryza sativa)): 10 | Plant response rating, Rice (rice (Oryza sativa); [11]): 10 | Corn plant response rating (corn (Zea mays); [19]): 0 | Plant response rating, Corn (corn (Zea mays); [15]): 20 | Plant response rating, Corn (corn (Zea mays); [16]): 0 | Plant response rating, Corn (corn (Zea mays); [17]): 0 | Pigweed plant response rating [4, 19]: 80 | Plant response rating, Pigweed [4, 15]: 100 | Plant response rating, Pigweed [4, 16]: 60 | Plant response rating, Pigweed [4, 17]: 90 | Crabgrass, Large plant response rating [5, 19]: 70 | Plant response rating, Crabgrass, Large [5, 15]: 90 | Plant response rating, Crabgrass, Large [5, 16]: 30 | Plant response rating, Crabgrass, Large [5, 17]: 80 | Morningglory plant response rating [6, 19]: 60 | Plant response rating, Morningglory [6, 15]: 70 | Plant response rating, Morningglory [6, 16]: 10 | Plant response rating, Morningglory [6, 17]: 70 | Velvetleaf plant response rating [7, 19]: 100 | Plant response rating, Velvetleaf [7, 15]: 100 | Plant response rating, Velvetleaf [7, 16]: 40 | Plant response rating, Velvetleaf [7, 17]: 70 | Foxtail, Giant plant response rating [8, 19]: 60 | Plant response rating, Foxtail, Giant [8, 15]: 90 | Plant response rating, Foxtail, Giant [8, 16]: 0 | Plant response rating, Foxtail, Giant [8, 17]: 60 | Wheat plant response rating [9, 19]: 0 | Plant response rating, Wheat [9, 15]: 0 | Plant response rating, Wheat [9, 16]: 0 | Plant response rating, Wheat [9, 17]: 20 | Barnyardgrass plant response rating [10, 19]: 80 | Plant response rating, Barnyardgrass [10, 15]: 90 | Plant response rating, Barnyardgrass [10, 16]: 0 | Plant response rating, Barnyardgrass [10, 17]: 50
